Assay results from patent US8278072B1, “Method for synthesis of sialylated products using reversible sialylation” (Health Research, Inc., priority 2007, dated 2012).

Target: T1, ST3Gal-II (Rattus norvegicus, UniProt Q11205)
T1 construct: purchased Calbiochem
T1 sequence (Q11205 1-350): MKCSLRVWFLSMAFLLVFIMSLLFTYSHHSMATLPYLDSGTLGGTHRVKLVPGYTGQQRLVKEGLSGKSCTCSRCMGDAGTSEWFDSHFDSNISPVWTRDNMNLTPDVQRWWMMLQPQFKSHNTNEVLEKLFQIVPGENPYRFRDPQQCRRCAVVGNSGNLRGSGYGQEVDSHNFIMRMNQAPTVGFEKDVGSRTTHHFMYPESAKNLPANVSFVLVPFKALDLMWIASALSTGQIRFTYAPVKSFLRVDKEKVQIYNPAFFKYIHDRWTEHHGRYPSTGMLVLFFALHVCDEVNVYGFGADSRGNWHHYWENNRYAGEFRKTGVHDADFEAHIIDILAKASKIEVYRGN
Assay: Reverse sialylation: transfer of [9-3H]NeuAc from sialylated donor to nucleotide phosphates (WGA-agarose)
Assay type: biochemical
Settings: donor [1]; for Incorporation of [9-3H]NeuAc expressed as percent of the CPM incorporated into 5′-CMP: nucleotide phosphate 1 mM as acceptor
Experimental: FIG. 1. Nucleotide phosphates as acceptors of radioactivity from [9-^3H]NeuAcα2,3Galβ,13 (GlcNAcβ1,6)GalNAcα-O—Al (Al=Allyl) [[9-^3H] [1]] in the presence of ST3Gal-II (scheme-I). Reaction mixtures (RM) with the following composition were incubated at 37° C. for 21 hours in 100 mM NaCa Codylate buffer, pH6.0: i) RM containing 150 μM (0.4 μCi) [[9-^3H] [1]] (donor) along with 0.8 mU ST3Gal-II but no 5″-CMP; and, ii) RM containing [[9-^3H] [1]] and 1.0 mM 5′-CMP, along with ST3Gal-II. Products formed were fractionated on a WGA-agarose column. […] The feasibility of the reverse reaction is well established in literature. Schematic symbols: ♦:sialic acid, ●:Gal, □:GalNAc, ▪:GlcNAc.
All enzymatic sialylation reactions were typically carried out in 100 mM NaCa Codylate buffer pH6.0 in the presence of enzyme, synthetic acceptor (at 7.5 mM or as indicated in each experiment) and 0.2 μCi CMP-[9-^3H]NeuAc (NEN-Dupont, 29 mCi/μmol). The concentration of total CMP-NeuAc was adjusted in individual reactions by supplementing with additional cold CMP-NeuAc. Reaction volume was 20 μl. Products formed were separated using four different chromatography procedures (below). In all cases, the radioactive content of isolated products was determined by using 3a70 scintillation cocktail (Research Products International, Mount Prospect, Ill.), and a Beckman LS6500 scintillation counter.
a) Biogel P2 chromatography: A Biogel P2 column (Fine Mesh; 1.0×116.0 cm) was used with 0.1 M pyridine acetate (pH5.4) as the eluent at room temperature. […] Fractions of 1.0 ml were collected. The bound material was then eluted with 0.5M GlcNAc or 0.2M Gal in the same buffer. […] Calculation of equilibrium constant, Keq: Equilibrium constant was calculated for selected reversible bimolecular reactions that are denoted by:
Cloned and purified rat sialyltransferase α2,3(O)ST (ST3Gal-II) is used in many experiments presented in this manuscript. […] In order to determine if the sialylation reaction is reversible (FIG. 1), [9-^3H]NeuAcα2,3Galβ,13(GlcNAcβ1,6)GalNAcα-O—Al (Al=Allyl) [9-^3H[1]] was prepared using ST3Gal-II in the presence of CMP-[9-^3H]NeuAc and the trisaccharide acceptor Galβ1,3(GlcNAcβ1,6)GalNAcα-O—Al, and the radiolabeled product was isolated using Biogel P2 chromatography. […] Two different reaction mixtures were then prepared with: i) [9-^3H[1]] and ST3Gal-II but without 5″-CMP; and ii) [9-^3H[1]] and 5″-CMP along with ST3Gal-II.

Row | Incorporation of [9-3H]NeuAc expressed as percent of the CPM incorporated into 5′-CMP [%] | Incorporation of [9-3H]NeuAc (1 mM nucleotide phosphate) | Compound
1 | 28.4 | – | Nc1ccn([C@@H]2O[C@H](COP(=O)(O)OP(=O)(O)O)[C@@H](O)[C@H]2O)c(=O)n1 [5′-CDP]
2 | 100.0 | (44197 CPM) | Nc1ccn([C@@H]2O[C@H](COP(=O)(O)O)[C@@H](O)[C@H]2O)c(=O)n1 [5′-CMP, Cytidine 5′-monophosphate]
